In brackets after ≈: the same amount, converted by molar mass. Several values for one entry are separate records, joined by “and”; a condition that tells them apart may be missing. Equal entries are not always repeated.
Legend:
Ustilaginoidea virens [1] = experiment: In vitro activity of pydiflumetofen and other active ingredients against rice false smut, mycelial growth method (Example 2); assay type: cell-based; details: for EC50: mycelial growth, same protocol as Example 1
Description: (§1) Ustilaginoidea virens, the pathogens that cause rice false smut, were isolated from infected rice tissues and stored at 4° C. Pathogen was applied to the PSA plate and incubated at 28° C. for 7 days. Mycelial plugs at the edge of the colony were prepared by hole puncher with a diameter of 5 mm. Pydiflumetofen was dissolved into dimethyl sulfoxide (DMSO) to get 4×10^4 μg/mL for stock solution. Mixing PSA culture medium with stock solution of pydiflumetofen to get different series of concentration: 0, 0.0005, 0.0010, 0.0025, 0.0040, 0.0055, and 0.007 μg/mL. Using the mycelial growth method, the mycelial plugs were shifted to the center of PSA medium plates containing different pydiflumetofen concentrations. […] EC50 values were determined by the fitted regression line of the log-transformed percentage inhibition plotted against the log-transformed fungicide concentration.
Using the same protocol as for Example 1 (above), the activity of pydiflumetofen against rice false smut was compared to that of other fungicidal active ingredients.
EC50 values were determined by the fitted regression line of the log-transformed percentage inhibition plotted against the log-transformed fungicide concentration. The lower the EC50 value, the higher the activity.

Ustilaginoidea virens [2] = experiment: In vitro activity against rice false smut by mycelial growth method (Example 1); assay type: cell-based; details: for Average mycelium growth diameter: untreated 35.63; for Mycelium diameter, Average: average of 8, untreated 40.63; for Mycelium diameter: individual replicates 1-8
Description: Example 1-In Vitro Activity of Pydiflumetofen Against Rice False Smut (Caused by Ustilaginoidea Virens) by Mycelial Growth Method
as §1
As stated above, EC50 values were determined by the fitted regression line of the log-transformed percentage inhibition plotted against the log-transformed fungicide concentration. The lower the EC50 value, the higher the activity.

rice false smut [3] = experiment: Field trial, efficacy against rice false smut at 38 days after application (Example 3); assay type: in vivo, Ustilaginoidea virens; details: 60-75 gai/ha
Text: (§2) • Application Method: Foliar Spray • Water Volume: 450 L/ha • Number of Applications: 1 • Application Timing: BBCH 45-47
A scale/index of 0 to 9 was used to define the level of disease severity, wherein 0 represents a healthy plant and 9 represents high levels/severe symptoms of disease. Each plant was graded on this 0 to 9 scale and the Disease Index calculated using the following formula:
Disease Index (DI)=[sum(class frequency×scpre of rating class)]/[(total number of plants)×(maximal disease index)]×100.

rice false smut [4] = experiment: Field trial, efficacy against rice false smut at 77 days after application (Example 4); assay type: in vivo, Ustilaginoidea virens; details: 75 gai/ha
Text: as §2

[5] = Ustilaginoidea virens, read-out: EC50

Epoxiconazole
EC50 (Ustilaginoidea virens [1]): 0.0086 ppm

CC(C1CC1)C(O)(Cn1cncn1)c1ccc(Cl)cc1 (stereo not drawn) [Cyproconazole]
EC50 (Ustilaginoidea virens [1]; [5]): 0.0387 µg/mL (≈ 0.133 µM)

OC(Cc1ccccc1Cl)(Cn1nc[nH]c1=S)C1(Cl)CC1 (stereo not drawn) [Prothioconazole]
EC50 (Ustilaginoidea virens [1]; [5]): 3.11 µg/mL (≈ 9.03 µM)

CC1(C)CCC(Cc2ccc(Cl)cc2)C1(O)Cn1cncn1 (stereo not drawn) [Metconazole]
EC50 (Ustilaginoidea virens [1]; [5]): 0.041 µg/mL (≈ 0.128 µM)

CON(C(=O)c1cn(C)nc1C(F)F)C(C)Cc1c(Cl)cc(Cl)cc1Cl (stereo not drawn) [Pydiflumetofen, 3-(difluoromethyl)-N-methoxy-1-methyl-N-[1-methyl-2-(2,4,6-trichloro-phenyl)ethyl]-1H-pyrazole-4-carboxamide]
Average mycelium growth diameter (Ustilaginoidea virens [2]; 0.0005 μg/mL, 28° C., 14 days): 33.13 mm | Mycelium diameter, Average (Ustilaginoidea virens [2]; 0.0005 μg/mL, 28° C., 14 days): 38.13 mm | Mycelium diameter (Ustilaginoidea virens [2]; 0.0005 μg/mL, 28° C., 14 days): 37 mm and 38 mm (5×) and 39 mm (2×) | Average mycelium growth diameter (Ustilaginoidea virens [2]; 0.0010 μg/mL, 28° C., 14 days): 28.63 mm | Mycelium diameter, Average (Ustilaginoidea virens [2]; 0.0010 μg/mL, 28° C., 14 days): 33.63 mm | Mycelium diameter (Ustilaginoidea virens [2]; 0.0010 μg/mL, 28° C., 14 days): 32 mm (2×) and 34 mm (2×) and 33 mm (2×) and 35 mm and 36 mm | Average mycelium growth diameter (Ustilaginoidea virens [2]; 0.0025 μg/mL, 28° C., 14 days): 20.75 mm | Mycelium diameter, Average (Ustilaginoidea virens [2]; 0.0025 μg/mL, 28° C., 14 days): 25.75 mm | Mycelium diameter (Ustilaginoidea virens [2]; 0.0025 μg/mL, 28° C., 14 days): 25 mm (4×) and 26 mm (3×) and 28 mm | Average mycelium growth diameter (Ustilaginoidea virens [2]; 0.0040 μg/mL, 28° C., 14 days): 19.50 mm | Mycelium diameter, Average (Ustilaginoidea virens [2]; 0.0040 μg/mL, 28° C., 14 days): 24.50 mm | Mycelium diameter (Ustilaginoidea virens [2]; 0.0040 μg/mL, 28° C., 14 days): 24 mm (4×) and 25 mm (4×) | Average mycelium growth diameter (Ustilaginoidea virens [2]; 0.0055 μg/mL, 28° C., 14 days): 17.75 mm | Mycelium diameter, Average (Ustilaginoidea virens [2]; 0.0055 μg/mL, 28° C., 14 days): 22.75 mm | Mycelium diameter (Ustilaginoidea virens [2]; 0.0055 μg/mL, 28° C., 14 days): 22 mm (3×) and 23 mm (4×) and 24 mm | Average mycelium growth diameter (Ustilaginoidea virens [2]; 0.0070 μg/mL, 28° C., 14 days): 7.75 mm | Mycelium diameter, Average (Ustilaginoidea virens [2]; 0.0070 μg/mL, 28° C., 14 days): 12.75 mm | Mycelium diameter (Ustilaginoidea virens [2]; 0.0070 μg/mL, 28° C., 14 days): 13 mm (6×) and 12 mm (2×) | inhibition at 0.0005 µg/mL (Ustilaginoidea virens [2]; Ustilaginoidea virens, 336 h, 0.0005 μg/mL, 28° C., 14 days): 7.02% | inhibition at 0.001 µg/mL (Ustilaginoidea virens [2]; Ustilaginoidea virens, 336 h, 0.0010 μg/mL, 28° C., 14 days): 19.6% | inhibition at 0.0025 µg/mL (Ustilaginoidea virens [2]; Ustilaginoidea virens, 336 h, 0.0025 μg/mL, 28° C., 14 days): 41.8% | inhibition at 0.004 µg/mL (Ustilaginoidea virens [2]; Ustilaginoidea virens, 336 h, 0.0040 μg/mL, 28° C., 14 days): 45.3% | inhibition at 0.0055 µg/mL (Ustilaginoidea virens [2]; Ustilaginoidea virens, 336 h, 0.0055 μg/mL, 28° C., 14 days): 50.2% | inhibition at 0.007 µg/mL (Ustilaginoidea virens [2]; Ustilaginoidea virens, 336 h, 0.0070 μg/mL, 28° C., 14 days): 78.2% | EC50 (Ustilaginoidea virens [2]; Ustilaginoidea virens, 336 h, mycelial growth, PSA, 28° C., 14 days): 0.0037 µg/mL (≈ 0.00867 µM) | activity against Ustilaginoidea virens (in words) (Ustilaginoidea virens [2]; mycelial growth): very high activity | EC50 (Ustilaginoidea virens [1]; [5]): 0.0045 µg/mL (≈ 0.0105 µM) | activity against Ustilaginoidea virens (in words) (Ustilaginoidea virens [1]; compared to fungicides commonly used to treat rice false smut): very high activity | control against rice false smut in the field (in words) (rice false smut [3]): good control | control against rice false smut in the field (in words) (rice false smut [4]): good control

CC(C)(C)C(O)(CCc1ccc(Cl)cc1)Cn1cncn1 (stereo not drawn) [Tebuconazole]
EC50 (Ustilaginoidea virens [1]; [5]): 0.0761 µg/mL (≈ 0.247 µM)

CCCC1COC(Cn2cncn2)(c2ccc(Cl)cc2Cl)O1 (stereo not drawn) [Propiconazole]
EC50 (Ustilaginoidea virens [1]; [5]): 0.0205 µg/mL (≈ 0.0599 µM)
